Where two headings read alike, the source gives them in different places.
System: cancer cell lines
Test: Cancer cell proliferation activity (CellTiterGlo, 72 h)
Type: cell-based
Conditions: 72 h, 72 h, read-out: IC50
Procedure, shortened: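 Cells seeded overnight at 37 °C, then dosed with compound at 0.1% final DMSO and incubated 72 h at 37 °C (5% or 10% CO2 by medium).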

- IC50 (5637 cell line (bladder)): 4.09 µM
- IC50 (CLS439 cell line (bladder)): > 50 µM
- IC50 (HS729 cell line (muscle)): 8.57 µM
- IC50 (HSS78T cell line): 3.71 µM
- IC50 (JAR cell line (placenta)): 3.66 µM
- IC50 (SKMELS cell line): 4.92 µM
- IC50 (Homo sapiens, 22Rv1, 72 h, 22RV1 cell line (prostate)): > 50 µM
- IC50 (Homo sapiens, 786-0, 72 h, 786O cell line (kidney)): 2.59 µM
- IC50 (Homo sapiens, A204, 72 h, A204 cell line (muscle)): 4.91 µM
- IC50 (Homo sapiens, A549, 72 h, A549 cell line): 4.96 µM
- IC50 (Homo sapiens, A673, 72 h, A673 cell line (bone)): > 50 µM
- IC50 (Homo sapiens, A2780, 72 h, A2780 cell line (ovary)): 4.54 µM
- IC50 (Homo sapiens, A-375, 72 h, A375 cell line (skin)): 3.67 µM
- IC50 (Homo sapiens, A-431, 72 h, A431 cell line (skin)): 2.29 µM
- IC50 (Homo sapiens, ACHN, ACHN cell line (kidney)): > 50 µM
- IC50 (Homo sapiens, ASPC1, 72 h, ASPC1 cell line (pancreas)): 2.99 µM
- IC50 (Homo sapiens, BT-20, 72 h, BT20 cell line (breast)): 4.14 µM
- IC50 (Homo sapiens, BXPC-3, 72 h, BXPC3 cell line (pancreas)): 7.13 µM
- IC50 (Homo sapiens, C-33-A, C33A cell line (cervical)): 4.28 µM
- IC50 (Homo sapiens, CAKI-1, 72 h, CAKI1 cell line (kidney)): 0.41 µM
- IC50 (Homo sapiens, COLO 205, 72 h, COLO205 cell line (colon)): 5.86 µM
- IC50 (Homo sapiens, COLO-678, 72 h, COLO678 cell line (colon)): 9.54 µM
- IC50 (Homo sapiens, Ca-Ski, CASKI cell line (cervical)): 2.33 µM
- IC50 (Homo sapiens, Caco-2, 72 h, CACO2 cell line (colon)): 5.32 µM
- IC50 (Homo sapiens, Calu-6, 72 h, CALU6 cell line (lung)): 3.07 µM
- IC50 (Homo sapiens, DLD-1, 72 h, DLD1 cell line (colon)): > 50 µM
- IC50 (Homo sapiens, DU-145, 72 h, DU145 cell line (prostate)): 3.3 µM
- IC50 (Homo sapiens, EFO-21, 72 h, EFO21 cell line (ovary)): 3.75 µM
- IC50 (Homo sapiens, EJ-28, 72 h, EJ28 cell line (bladder)): 5.11 µM
- IC50 (Homo sapiens, Granta-519, 72 h, GRANTA-519 cell line (hematological)): > 50 µM
- IC50 (Homo sapiens, HCT-15, 72 h, HCT15 cell line (colon)): > 50 µM
- IC50 (Homo sapiens, HCT-116, 72 h, HCT116 cell line (colon)): 3.96 µM
- IC50 (Homo sapiens, HEK293, 72 h, HEK293 cell line (kidney)): 5.3 µM
- IC50 (Homo sapiens, HL-60, 72 h, HL-60 cell line (hematological)): 5.42 µM
- IC50 (Homo sapiens, HT-29, 72 h, HT29 cell line (colon)): 2.16 µM
- IC50 (Homo sapiens, HT-1080, 72 h, HT1080 cell line (connective tissue)): > 50 µM
- IC50 (Homo sapiens, HeLa, HELA cell line (cervical)): 2.73 µM
- IC50 (Homo sapiens, HepG2, 72 h, HEPG2 cell line (liver)): 3.32 µM
- IC50 (Homo sapiens, IGROV-1, 72 h, IGROV1 cell line (ovary)): 2.72 µM
- IC50 (Homo sapiens, IMR-90, 72 h, IMR.90 cell line): 2.76 µM
- IC50 (Homo sapiens, J82, 72 h, J82 cell line (bladder)): 3.18 µM
- IC50 (Homo sapiens, JEG-3, 72 h, JEG3 cell line (placenta)): 3.36 µM
- IC50 (Homo sapiens, JIMT-1, 72 h, JIMT1 cell line (breast)): 1.43 µM
- IC50 (Homo sapiens, K562, 72 h, K-562 cell line (hematological)): > 50 µM
- IC50 (Homo sapiens, Kasumi 1, 72 h, KASUMI-1 cell line (hematological)): 1.54 µM
- IC50 (Homo sapiens, L-363, 72 h, L-363 cell line (hematological)): 3.16 µM
- IC50 (Homo sapiens, LoVo, LOVO cell line (colon)): 3.61 µM
- IC50 (Homo sapiens, MCF7, 72 h, MCF7 cell line (breast)): > 50 µM
- IC50 (Homo sapiens, MDA-MB-231, 72 h, MDAMB231 cell line (breast)): > 50 µM
- IC50 (Homo sapiens, MDA-MB-435, 72 h, MDAMB435 cell line (skin)): > 50 µM
- IC50 (Homo sapiens, MDA-MB-436, 72 h, MDAMB436 cell line (breast)): 3.36 µM
- IC50 (Homo sapiens, MDA-MB-468, 72 h, MDAMB468 cell line (breast)): 2.58 µM
- IC50 (Homo sapiens, MG-63, 72 h, MG63 cell line (bone)): > 50 µM
- IC50 (Homo sapiens, MHH-ES-1, 72 h, MHHES1 cell line (bone)): 3.07 µM
- IC50 (Homo sapiens, MIA PaCa-2, 72 h, MIAPACA2 cell line (pancreas)): > 50 µM
- IC50 (Homo sapiens, MINO, MINO cell line (hematological)): 2.52 µM
- IC50 (Homo sapiens, MV4-11, 72 h, MV4-11 cell line (hematological)): 3.35 µM
- IC50 (Homo sapiens, NCI-H23, 72 h, NCI-H23 cell line (lung)): 3.33 µM
- IC50 (Homo sapiens, NCI-H82, 72 h, NCIH82 cell line (lung)): 3.4 µM
- IC50 (Homo sapiens, NCI-H292, 72 h, NCIH292 cell line (lung)): > 50 µM
- IC50 (Homo sapiens, NCI-H460, 72 h, NCIH460 cell line (lung)): 5.43 µM
- IC50 (Homo sapiens, OVCAR-3, 72 h, OVCAR3 cell line (ovary)): 1.92 µM
- IC50 (Homo sapiens, OVCAR-4, 72 h, OVCAR4 cell line (ovary)): 4.25 µM
- IC50 (Homo sapiens, PANC-1, 72 h, PANC1 cell line (pancreas)): > 50 µM
- IC50 (Homo sapiens, PC-3, 72 h, PC3 cell line (prostate)): 3.83 µM
- IC50 (Homo sapiens, PLC-PRF-5, 72 h, PLCPRF5 cell line (liver)): > 50 µM
- IC50 (Homo sapiens, Panc1005, 72 h, PANC1005 cell line (pancreas)): 2.98 µM
- IC50 (Homo sapiens, RD, RD cell line (muscle)): 4.61 µM
- IC50 (Homo sapiens, Ramos, RAMOS cell line (hematological)): 3.68 µM
- IC50 (Homo sapiens, SAOS-2, 72 h, SAOS2 cell line (bone)): 4.32 µM
- IC50 (Homo sapiens, SF-268, 72 h, SF268 cell line (brain)): > 50 µM
- IC50 (Homo sapiens, SF-295, 72 h, SF295 cell line (brain)): > 50 µM
- IC50 (Homo sapiens, SK-BR-3, 72 h, SKBR3 cell line (breast)): 1.09 µM
- IC50 (Homo sapiens, SK-HEP1, 72 h, SKHEP1 cell line (liver)): 5.13 µM
- IC50 (Homo sapiens, SK-LMS-1, 72 h, SKLMS1 cell line (uterus)): 4.34 µM
- IC50 (Homo sapiens, SK-MEL-28, 72 h, SKMEL28 cell line (skin)): 3.69 µM
- IC50 (Homo sapiens, SK-N-AS, SKNAS cell line (brain)): 2.78 µM
- IC50 (Homo sapiens, SK-N-SH, SKNSH cell line (brain)): 2.65 µM
- IC50 (Homo sapiens, SK-OV-3, 72 h, SKOV3 cell line (ovary)): 3.01 µM
- IC50 (Homo sapiens, SNB-75, 72 h, SNB75 cell line (brain)): 9.06 µM
- IC50 (Homo sapiens, SU-DHL10, 72 h, SU-DHL-10 cell line (hematological)): 4.84 µM
- IC50 (Homo sapiens, SU-DHL-6, 72 h, SU-DHL-6 cell line (hematological)): 3.29 µM
- IC50 (Homo sapiens, SW-620, 72 h, SW620 cell line (colon)): 3.44 µM
- IC50 (Homo sapiens, T-24, 72 h, T24 cell line (bladder)): 3.9 µM
- IC50 (Homo sapiens, TE-671, 72 h, TE671 cell line (muscle)): > 50 µM
- IC50 (Homo sapiens, THP-1, 72 h, THP-1 cell line (hematological)): > 50 µM
- IC50 (Homo sapiens, U2OS, U2OS cell line (bone)): 2.64 µM
- IC50 (Homo sapiens, U-87 MG, U87MG cell line (brain)): > 50 µM
- IC50 (Homo sapiens, UMUC3, 72 h, UMUC3 cell line (bladder)): > 50 µM
- IC50 (Homo sapiens, UO-31, 72 h, UO31 cell line (kidney)): 2.15 µM
- IC50 (Homo sapiens, WSU-NHL, WSU-NHL cell line (hematological)): 3.41 µM
- IC50 (MT-3, 72 h, MT3 cell line (breast)): 2.87 µM
- IC50 (NCI-H358M, NCIH358M cell line (lung)): 2.68 µM
- IC50 (PBMC, PBMC (hematological)): > 50 µM
- IC50 (RD-ES, RDES cell line (bone)): 3.07 µM
Structure (SMILES): CC(C)C[C@]1(CO)O[C@@H](n2cnc3c(N)nc(F)nc32)C[C@@H]1O [Cpd. No. 133, (2R,3S,5R)-5-(6-amino-2-fluoro-9H-purin-9-yl)-2-(hydroxymethyl)-2-isobutyltetrahydrofuran-3-ol]
